Consider three molecules from US20230201214A1, “LPXC INHIBITOR, FORMULATIONS, AND USES THEREOF” (priority 2020, published 2023).

In brackets after ≈: the same amount, converted by molar mass.

The MIC is the least concentration at which growth counts as inhibited. By solubility is commonly meant how much of the substance goes into solution per volume.

Data set [1] concerns N. cyriacigeorgica complex NEQAS 3295. Put plainly: Bacterial susceptibility testing (MIC, broth microdilution). As to conditions: Nocardia cyriacigeorgica. The data set is classed as cell-based. The procedure:
(§1) Minimal inhibitory concentrations (MIC) against a variety of gram-negative and gram-positive bacterial strains were determined by the broth microdilution method in accordance with the Clinical and Laboratory Standards Institute (CLSI) guidelines. In brief, organism suspensions were adjusted to a 0.5 McFarland standard to yield a final inoculum between 3×10^5 and 7×10^5 colony-forming units (CFU)/mL. Drug dilutions and inocula were made in sterile, cation adjusted Mueller-Hinton Broth (Beckton Dickinson). An inoculum volume of 100 μL was added to wells containing 100 μL. of broth with 2-fold serial dilutions of drug. All inoculated microdilution trays were incubated in ambient air at 35° C. for 18-24 h. Following incubation, the lowest concentration of the drug that prevented visible growth (OD600 nm<0.05) was recorded as the MIC. Performance of the assay was monitored by the use of laboratory quality-control strains and levofloxacin, a compound with a defined MIC spectrum, in accordance with CLSI guidelines.

Data set [2] deals with gram-negative and gram-positive bacterial strains. Put plainly: Bacterial susceptibility testing, whole panel. The data set is classed as cell-based. The procedure:
as §1

Data set [3] is described as follows: Oral solution formulation excipient screening (solubility estimated by HPLC). The format is physicochemical. The text has this:
The solubility of Compound A was estimated by HPLC in multiple potential excipients for a solution formulation (Table 4).

As for `N#CC1CN(C[C@@H](Cc2ncnc(O)c2O)c2ccc(C#Cc3ccc(CN4CCOCC4)cc3)cc2)C1` [Compound A, (S)-1-(3-(5,6-dihydroxypyrimidin-4-yl)-2-(4-((4-(morpholinomethyl)phenyl)ethynyl)phenyl)propyl)azetidine-3-carbonitrile], in data set [1], the minimal inhibitory concentration (MIC) was above 64 µg/mL. For the same molecule, in data set [2] (from MIC panel of Table 1), the “selectivity for gram-negative bacteria over gram-positive bacteria” value was “high selectivity”. The solubility is 330 µg/mL (≈ 648 µM) in data set [3] (Capmul MCM, oil or lipid); 900 µg/mL (≈ 1770 µM) in data set [3] (Cremophor RH40, aqueous with cosolvent or surfactant or cyclodextrin); at least 45000 µg/mL in data set [3] (HCl solution (pH 0.5), pH 0.5, simulated gastric fluid); 120 µg/mL (≈ 235 µM) in data set [3] (Labrafil M 1944, oil or lipid); at least 20000 µg/mL in data set [3] (Lactic acid, organic solvent or mixture); 130 µg/mL (≈ 255 µM) in data set [3] (Maisine CC, oil or lipid). For the same molecule, the solubility in data set [3] (Oleic acid, oil or lipid) is 480 µg/mL (≈ 942 µM); in data set [3] (Peppermint oil, oil or lipid), 50 µg/mL (≈ 98.1 µM); in data set [3] (Polysorbate 20, aqueous with cosolvent or surfactant or cyclodextrin), 850 µg/mL (≈ 1670 µM); in data set [3] (Polysorbate 80, aqueous with cosolvent or surfactant or cyclodextrin), 620 µg/mL (≈ 1220 µM); in data set [3] (Propylene glycol (pH 0.5), pH 0.5, organic solvent or mixture) it was at least 45000 µg/mL; in data set [3] (Propylene glycol, organic solvent or mixture), below 10000 µg/mL. Besides, the solubility in data set [3] (SBEβCD (30% w/v), pH 0.5, pH 0.5, aqueous with cosolvent or surfactant or cyclodextrin) was at least 45000 µg/mL; in data set [3] (SBEβCD (30% w/v), pH 3, pH 3, aqueous with cosolvent or surfactant or cyclodextrin), below 10000 µg/mL; in data set [3] (Solutol HS 15, aqueous with cosolvent or surfactant or cyclodextrin), 630 µg/mL (≈ 1240 µM); in data set [3] (Soybean oil, oil or lipid), 20 µg/mL (≈ 39.2 µM); in data set [3] (Transcutol (pH 0.5), pH 0.5, organic solvent or mixture), at least 10000 µg/mL; in data set [3] (Transcutol, organic solvent or mixture), below 10000 µg/mL. The solubility is below 10000 µg/mL in data set [3] (Vitamin E TPGS, aqueous with cosolvent or surfactant or cyclodextrin); below 10000 µg/mL in data set [3] (aqueous with cosolvent or surfactant or cyclodextrin, Gelucire 44/14 (surfactant)); below 10000 µg/mL in data set [3] (organic solvent or mixture, PEG400 (co-solvent)). In data set [3] (most excipients, acidifying the excipients led to higher solubility), the “solubility in excipients, overall” value is “Low solubility”.
The molecule `C[C@H]1COc2c(N3CCN(C)CC3)c(F)cc3c(=O)c(C(=O)O)cn1c23` [Levofloxacin] showed an MIC in data set [1] of 8 µg/mL (≈ 22.1 µM).
`C[C@@H](O)[C@H]1C(=O)N2C(C(=O)O)=C(S[C@@H]3CN[C@H](C(=O)N(C)C)C3)[C@H](C)[C@H]12` [Meropenem, reference compound] had an MIC in data set [1] above 1 µg/mL. For the same molecule, the “activity against gram-positive bacteria” value in data set [2] (various strains of gram-positive bacteria) was “do have activity”.
